Patent publication EP0114128A1, “3-Amino-2-oxo-azetidine derivatives containing in position 1 a nitrogen heterocyclic radical, process for their preparation, their use as therapeutical agents and intermediates for their preparation” (priority 1983, dated 1984)
In brackets after ≈: the same amount, converted by molar mass. Read-outs that look alike come from different tables or passages of the source.

Experiments:
Assay in all cases: In vitro activity, dilution method in liquid medium (MIC)
Format in all cases: cell-based
[1] = test system: Escherichia Coli 1507 E; conditions: COLI1507E, read-out: concentrations minimales inhibitrices (C. M. I.)
Protocol: (§1) Etude pharmacologiaue des produits de l'invention. Activité in vitro, méthode des dilutions en milieu liquide.
(§2) On prépare une série de tubes dans lesquels on répartit une même quantité de milieu nutritif stérile. On distribue dans chaque tube des quantités croissantes du produit à étudier, puis chaque tube est ensemencé avec une souche bactérienne. Après incubation de vingt-quatre ou quarante-huit heures à l'étuve à 37°C, l'inhibition de la croissance est appréciée par transillumination ce qui permet de déterminer les concentrations minimales inhibitrices (C. M. I.) exprimées en µg/cm3.

[2] = test system: Salmonella typhimurium MZ 11; conditions: Salmonella enterica, read-out: concentrations minimales inhibitrices (C. M. I.)
Protocol: as §1, §2

[3] = test system: Escherichia Coli TEM; conditions: read-out: concentrations minimales inhibitrices (C. M. I.)
Protocol: as §1, §2

[4] = test system: Klebsiella Aeruginosa 1522 E; conditions: read-out: concentrations minimales inhibitrices (C. M. I.)
Protocol: as §1, §2

[5] = test system: Klebsiella pneumonae 52145; conditions: read-out: concentrations minimales inhibitrices (C. M. I.)
Protocol: as §1, §2

[6] = test system: Escherichia Coli DC0; conditions: read-out: concentrations minimales inhibitrices (C. M. I.)
Protocol: as §1, §2

[7] = test system: Escherichia Coli 078; conditions: read-out: concentrations minimales inhibitrices (C. M. I.)
Protocol: as §1, §2

[8] = test system: Escherichia Coli DC2; conditions: read-out: concentrations minimales inhibitrices (C. M. I.)
Protocol: as §1, §2

[9] = test system: Providencia DU 48; conditions: read-out: concentrations minimales inhibitrices (C. M. I.)
Protocol: as §1, §2

[10] = test system: Enterobacter cloacae 1321 E; conditions: read-out: concentrations minimales inhibitrices (C. M. I.)
Protocol: as §1, §2

[11] = test system: Proteus mirabilis A 235; conditions: read-out: concentrations minimales inhibitrices (C. M. I.)
Protocol: as §1, §2

[12] = test system: Proteus vulgaris A 232; conditions: read-out: concentrations minimales inhibitrices (C. M. I.)
Protocol: as §1, §2

[13] = test system: Pseudomonas aeruginosa 1771 m; conditions: read-out: concentrations minimales inhibitrices (C. M. I.)
Protocol: as §1, §2

[14] = test system: Escherichia Coli 1894; conditions: read-out: concentrations minimales inhibitrices (C. M. I.)
Protocol: as §1, §2

[15] = test system: Serratia marcesceus 2532; conditions: read-out: concentrations minimales inhibitrices (C. M. I.)
Protocol: as §1, §2

[16] = COLIDC0, 24 H incubation at 37°C
[17] = COLIDC0, 48 H incubation at 37°C
[18] = COLI078, 24 H incubation at 37°C
[19] = COLI078, 48 H incubation at 37°C
[20] = COLIDC2, 24 H incubation at 37°C
[21] = COLIDC2, 48 H incubation at 37°C
[22] = COLI1894, 24 H incubation at 37°C
[23] = COLI1894, 48 H incubation at 37°C

| SMILES | MIC ([1]; 24 H incubation at 37°C) [µg/mL] | MIC ([1]; 48 H incubation at 37°C) [µg/mL] | MIC ([2]; 24 H incubation at 37°C) [µg/mL] | MIC ([2]; 48 H incubation at 37°C) [µg/mL] | MIC ([3]; 24 h) [µg/mL] | MIC ([3]; 48 h) [µg/mL] | MIC ([4]; 24 H incubation at 37°C) [µg/mL] | MIC ([4]; 48 H incubation at 37°C) [µg/mL] | MIC ([5]; 24 H incubation at 37°C) [µg/mL] | MIC ([5]; 48 H incubation at 37°C) [µg/mL] | MIC [6, 16] [µg/mL] | MIC [6, 17] [µg/mL] | MIC [7, 18] [µg/mL] | MIC [7, 19] [µg/mL] | MIC [8, 20] [µg/mL] | MIC [8, 21] [µg/mL] | MIC ([9]; DU48, 24 H incubation at 37°C) [µg/mL] | MIC ([9]; DU48, 48 H incubation at 37°C) [µg/mL] | MIC ([10]; 24 H incubation at 37°C) [µg/mL] | MIC ([10]; 48 H incubation at 37°C) [µg/mL] | other results |
| --- | --- | --- | --- | --- | --- | --- | --- | --- | --- | --- | --- | --- | --- | --- | --- | --- | --- | --- | --- | --- | --- |
| C[C@@H]1[C@H](NC(=O)/C(=N\OC(C)(C)C(=O)O)c2csc(N)n2)C(=O)N1c1nn[nH]n1 (racemic) [Prod. ex.7, (3SR, 4RS) 3-//2-(-2-aminothiazol-4-yl) 2-/(1-carboxy 1-méthyléthoxy) imino/ acétyl/ aminol/4-méthyl 1-(tétrazol-5-yl) 2-azétidinone isomère syn] | 1.2 (≈ 2.83 µM) | 1.2 (≈ 2.83 µM) | 0.6 (≈ 1.42 µM) | 0.6 (≈ 1.42 µM) | 1.2 (≈ 2.83 µM) | 1.2 (≈ 2.83 µM) | 1.2 (≈ 2.83 µM) | 1.2 (≈ 2.83 µM) | 2.5 (≈ 5.9 µM) | 2.5 (≈ 5.9 µM) | 0.6 (≈ 1.42 µM) | 1.2 (≈ 2.83 µM) | 0.3 (≈ 0.709 µM) | 0.6 (≈ 1.42 µM) | 0.6 (≈ 1.42 µM) | 0.6 (≈ 1.42 µM) | 0.6 (≈ 1.42 µM) | 0.6 (≈ 1.42 µM) | 2.5 (≈ 5.9 µM) | 2.5 (≈ 5.9 µM) | MIC ([11]; A235, 24 H incubation at 37°C): 0.15 µg/mL (≈ 0.354 µM); MIC ([11]; A235, 48 H incubation at 37°C): 0.15 µg/mL (≈ 0.354 µM); MIC ([12]; A232, 24 H incubation at 37°C): 0.08 µg/mL (≈ 0.189 µM); MIC ([12]; A232, 48 H incubation at 37°C): 0.08 µg/mL (≈ 0.189 µM); MIC ([13]; 24 H incubation at 37°C): 0.6 µg/mL (≈ 1.42 µM); MIC ([13]; 48 H incubation at 37°C): 0.6 µg/mL (≈ 1.42 µM); MIC [14, 22]: 0.6 µg/mL (≈ 1.42 µM); MIC [14, 23]: 0.6 µg/mL (≈ 1.42 µM); MIC ([15]; 24 H incubation at 37°C): 1.2 µg/mL (≈ 2.83 µM); MIC ([15]; 48 H incubation at 37°C): 1.2 µg/mL (≈ 2.83 µM) |
| CO/N=C(\C(=O)N[C@@H]1C(=O)N(c2nn[nH]n2)[C@@H]1C)c1csc(N)n1 (racemic) [Prod. ex. 1, (3SR. 4RS) 3-//2-(2-aminothiazol-4-yl) 2-méthoxyimino acétyl/ amino/-4-méthyl 1-(1H-tétrazol-5-yl)-2-azétidinone isomère syn] | 0.3 (≈ 0.854 µM) | 0.3 (≈ 0.854 µM) | 1.2 (≈ 3.42 µM) | 1.2 (≈ 3.42 µM) | 0.6 (≈ 1.71 µM) | 1.2 (≈ 3.42 µM) | 1.2 (≈ 3.42 µM) | 1.2 (≈ 3.42 µM) | 1.2 (≈ 3.42 µM) | 2.5 (≈ 7.12 µM) | 1.2 (≈ 3.42 µM) | 1.2 (≈ 3.42 µM) | 0.3 (≈ 0.854 µM) | 0.3 (≈ 0.854 µM) | 0.6 (≈ 1.71 µM) | 0.6 (≈ 1.71 µM) | 0.6 (≈ 1.71 µM) | 0.6 (≈ 1.71 µM) | 0.6 (≈ 1.71 µM) | 0.6 (≈ 1.71 µM) | MIC ([11]; A235, 24 H incubation at 37°C): 0.15 µg/mL (≈ 0.427 µM); MIC ([11]; A235, 48 H incubation at 37°C): 0.15 µg/mL (≈ 0.427 µM); MIC ([12]; A232, 24 H incubation at 37°C): 0.3 µg/mL (≈ 0.854 µM); MIC ([12]; A232, 48 H incubation at 37°C): 0.3 µg/mL (≈ 0.854 µM); MIC ([13]; 24 H incubation at 37°C): ≤ 5 µg/mL; MIC ([13]; 48 H incubation at 37°C): ≤ 5 µg/mL; MIC [14, 22]: 0.08 µg/mL (≈ 0.228 µM); MIC [14, 23]: 0.08 µg/mL (≈ 0.228 µM); MIC ([15]; 24 H incubation at 37°C): 20 µg/mL (≈ 56.9 µM); MIC ([15]; 48 H incubation at 37°C): 20 µg/mL (≈ 56.9 µM) |
| CO/N=C(\C(=O)N[C@@H]1C(=O)N(c2nn[nH]n2)[C@H]1C)c1csc(N)n1 (racemic) [Prod. ex. 2, (3SR, 4SR) 3-//2-(2-aminothiazol-4-yl) 2-méthoxyimino acétyl/ amino/ 4-méthyl 1-(1H-tétrazol-5-yl) 2-azétidinone] | 0.6 (≈ 1.71 µM) | 0.6 (≈ 1.71 µM) | 1.2 (≈ 3.42 µM) | 2.5 (≈ 7.12 µM) | 10 (≈ 28.5 µM) | 10 (≈ 28.5 µM) | 0.6 (≈ 1.71 µM) | 0.6 (≈ 1.71 µM) | 2.5 (≈ 7.12 µM) | 2.5 (≈ 7.12 µM) | 2.5 (≈ 7.12 µM) | 2.5 (≈ 7.12 µM) | 0.6 (≈ 1.71 µM) | 0.6 (≈ 1.71 µM) | 0.6 (≈ 1.71 µM) | 1.2 (≈ 3.42 µM) | 1.2 (≈ 3.42 µM) | 1.2 (≈ 3.42 µM) | 1.2 (≈ 3.42 µM) | 1.2 (≈ 3.42 µM) | MIC ([11]; A235, 24 H incubation at 37°C): 0.6 µg/mL (≈ 1.71 µM); MIC ([11]; A235, 48 H incubation at 37°C): 1.2 µg/mL (≈ 3.42 µM); MIC ([12]; A232, 24 H incubation at 37°C): 1.2 µg/mL (≈ 3.42 µM); MIC ([12]; A232, 48 H incubation at 37°C): 2.5 µg/mL (≈ 7.12 µM); MIC ([13]; 24 H incubation at 37°C): ≤ 5 µg/mL; MIC ([13]; 48 H incubation at 37°C): ≤ 5 µg/mL; MIC [14, 22]: 0.3 µg/mL (≈ 0.854 µM); MIC [14, 23]: 0.3 µg/mL (≈ 0.854 µM); MIC ([15]; 24 H incubation at 37°C): 20 µg/mL (≈ 56.9 µM); MIC ([15]; 48 H incubation at 37°C): > 40 µg/mL |
